Laboratory results as given in the supplement of paper PMC4858399.

What was measured:
[1] = system: Caenorhabditis elegans N2; experiment: mean nematode size ln(EXT) after 48 h, plate-adjusted (DMSO control set to 6) (ln(EXT), control-adjusted); higher = larger nematodes / less growth inhibition; details: exposure time 48 h
Summary of the method: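 Chemical at 0.5–200 µM was tested on synchronised C. elegans N2 L1 larvae grown for 48 h at 20°C in K-medium with killed OP50 and 1% DMSO. Per-worm Biosort extinction, cleared of debris by a growth model, was natural-logged and averaged per well to give mean size. Plates were normalised by subtracting the vehicle control mean and adding 6.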

[2] = system: Caenorhabditis elegans N2; experiment: lowest effective concentration for larval growth inhibition (size below effect threshold); higher = less potent; details: exposure time 48 h
Summary of the method: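 Chemical exposure ran for 48 h at 20°C: 50 C. elegans N2 L1 larvae per 96-well in K-medium with killed bacteria, 1% DMSO and 0.5, 1, 5, 10, 50, 100 or 200 µM chemical. Extinction of each worm, read as size on the Biosort, was log-transformed and averaged by well. The lowest effective concentration is the first dose whose plate-adjusted mean size is below a fixed value and remains so at all higher doses; the value is 5.665.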

Row | Compound | mean nematode size ln(EXT) (ln) ([1]; 0.5 µM) | mean nematode size ln(EXT) (ln) ([1]; 1 µM) | mean nematode size ln(EXT) (ln) ([1]; 5 µM) | mean nematode size ln(EXT) (ln) ([1]; 10 µM) | mean nematode size ln(EXT) (ln) ([1]; 50 µM) | mean nematode size ln(EXT) (ln) ([1]; 100 µM) | mean nematode size ln(EXT) (ln) ([1]; 200 µM) | lowest effective concentration [2]
1 | CC(C)CC(C)O (stereo unspecified) [4-Methyl-2-pentanol] | 6.05 | 5.96 | 6.02 | 5.89 | 5.97 | 5.96 | 5.79 | > 200 µM
2 | Cc1ccc(N)cc1 [4-Methyl-benzeneamine] | 5.89 | 5.85 | 5.89 | 5.88 | 5.79 | 5.85 | 5.71 | > 200 µM
3 | Cc1ccc(O)cc1 [4-Methylphenol] | 5.84 | 5.98 | 5.92 | 5.87 | 5.96 | 5.8 | 5.83 | > 200 µM
4 | Nc1ccc([N+](=O)[O-])cc1 [4-Nitroaniline] | 5.76 | 5.77 | 5.73 | 5.64 | 5.68 | 5.69 | 5.72 | > 200 µM
5 | O=[N+]([O-])c1ccc(O)cc1 [4-Nitrophenol] | 5.92 | 5.82 | 5.87 | 5.69 | 5.89 | 5.8 | 5.8 | > 200 µM
6 | Cc1ccc([N+](=O)[O-])cc1 [4-Nitrotoluene] | 5.99 | 5.92 | 5.98 | 5.85 | 5.94 | 5.95 | 5.77 | > 200 µM
7 | CC(C)(C)c1ccc(O)cc1 [4-tert-Butylphenol] | 5.86 | 5.91 | 5.92 | 5.94 | 5.91 | 5.81 | 5.71 | > 200 µM
8 | CC1(C)NC(=O)NC1=O [5,5-Dimethylhydantoin] | 5.74 | 5.99 | 6.06 | 5.91 | 5.97 | 5.93 | 5.79 | > 200 µM
9 | O=C1NC(=O)C(c2ccccc2)(c2ccccc2)N1 [5,5-Diphenylhydantoin] | 5.94 | 5.99 | 5.92 | 5.94 | 5.91 | 5.88 | 5.78 | > 200 µM
10 | Cc1ccc(N)cc1O [5-Amino-o-cresol] | 5.44 | 5.57 | 5.55 | 5.6 | 5.74 | 5.75 | 5.8 | > 200 µM
11 | CCC12COCN1COC2 [5-Ethyl-1-aza-3,7-dioxabicyclo[3.3.0]octane] | 5.73 | 6.05 | 6.06 | 5.92 | 5.96 | 5.94 | 5.78 | > 200 µM
12 | Cc1c(-c2cccnc2)c2ccccc2n1CCCCC(=O)O [5-[2-methyl-3-(pyridin-3-yl)-1H-indol-1-yl]pentanoic acid] | 5.93 | 5.89 | 5.78 | 5.84 | 5.83 | 5.87 | 5.7 | > 200 µM
13 | CCNc1nc(N)nc(Cl)n1 [6-Deisopropylatrazine] | 6.12 | 6.17 | 6.08 | 6.05 | 5.95 | 6 | 5.94 | > 200 µM
14 | CCCc1cc(=O)[nH]c(=S)[nH]1 [6-Propyl-2-thiouracil] | 5.8 | 5.84 | 5.82 | 5.91 | 5.8 | 5.88 | 5.74 | > 200 µM
15 | Nc1nc(=S)c2[nH]cnc2[nH]1 [6-Thioguanine] | 5.81 | 5.79 | 5.86 | 5.8 | 5.78 | 5.86 | 5.72 | > 200 µM
16 | C#C[C@]1(O)CC[C@H]2[C@@H]3CCc4cc(O)ccc4[C@H]3CC[C@@]21C [17alpha-Ethynylestradiol] | 6 | 5.96 | 5.9 | 5.91 | 6 | 5.86 | 5.92 | > 200 µM
17 | C[C@](N)(Cc1ccc(O)c(O)c1)C(=O)O [(-)-3-(3,4-Dihydroxyphenyl)-2-methyl-L-alanine sesquihydrate] | 5.88 | 5.88 | 5.89 | 5.89 | 5.88 | 5.87 | 5.85 | > 200 µM
18 | COP(=O)(NC(C)=O)SC (stereo unspecified) [Acephate] | 5.69 | 5.74 | 5.76 | 5.69 | 5.85 | 5.77 | 5.99 | > 200 µM
19 | CC(=O)Nc1ccc(O)cc1 [Acetaminophen] | 6.04 | 6.05 | 6.04 | 6.12 | 6.09 | 6.04 | 5.74 | > 200 µM
20 | C/C(=N\C#N)N(C)Cc1ccc(Cl)nc1 [Acetamiprid] | 5.78 | 5.98 | 6.03 | 6.03 | 6.16 | 6.02 | 5.96 | > 200 µM
21 | CCOCN(C(=O)CCl)c1c(C)cccc1CC [Acetochlor] | 6.04 | 6 | 6.11 | 6.25 | 6.04 | 6.05 | 6.15 | > 200 µM
22 | CC(=O)c1ccccc1 [Acetophenone] | 6 | 6.01 | 6.03 | 6.08 | 6.16 | 6.11 | 5.78 | > 200 µM
23 | O=C(O)c1cc(Oc2ccc(C(F)(F)F)cc2Cl)ccc1[N+](=O)[O-] [Acifluorfen] | 5.84 | 5.92 | 5.76 | 6.05 | 6.01 | 6.24 | 5.94 | > 200 µM
24 | C=CC(N)=O [Acrylamide] | 6 | 5.68 | 5.69 | 5.76 | 5.89 | 5.76 | 5.65 | 200 µM
25 | CSC(C)(C)/C=N/O [Aldicarb oxime] | 5.88 | 5.88 | 5.75 | 5.85 | 5.94 | 5.94 | 5.77 | > 200 µM
26 | CNC(=O)O/N=C/C(C)(C)SC [Aldicarb] | 5.86 | 5.88 | 5.74 | 5.74 | 5.55 | 5.25 | 5.75 | > 200 µM
27 | COc1cc(S(=O)(=O)O)c(C)cc1N=Nc1c(O)ccc2cc(S(=O)(=O)O)ccc12 [Allura red] | 5.71 | 5.75 | 5.76 | 5.79 | 5.72 | 5.67 | 5.86 | > 200 µM
